Source: ChEMBL document CHEMBL1151779, “Exploration of a fundamental substituent effect of alpha-ketoheterocycle enzyme inhibitors: Potent and selective inhibitors of fatty acid amide hydrolase” (Bioorg Med Chem Lett, 2008)

What was measured:
[1] = target: T1, Neutral cholesterol ester hydrolase 1 (Homo sapiens, UniProt Q6PIU2); test: Inhibition of KIAA1363
T1 sequence (Q6PIU2 whole entry): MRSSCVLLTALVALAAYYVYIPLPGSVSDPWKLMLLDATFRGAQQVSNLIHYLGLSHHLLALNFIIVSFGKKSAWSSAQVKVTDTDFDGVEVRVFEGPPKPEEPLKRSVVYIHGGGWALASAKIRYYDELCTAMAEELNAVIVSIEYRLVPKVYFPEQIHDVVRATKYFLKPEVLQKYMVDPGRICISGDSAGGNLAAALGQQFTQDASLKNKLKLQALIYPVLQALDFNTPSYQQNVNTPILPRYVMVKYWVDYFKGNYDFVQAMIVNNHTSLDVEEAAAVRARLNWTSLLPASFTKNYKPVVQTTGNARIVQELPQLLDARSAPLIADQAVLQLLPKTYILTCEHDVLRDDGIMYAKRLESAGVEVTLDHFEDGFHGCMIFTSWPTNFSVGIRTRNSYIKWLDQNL

[2] = Selectivity ratio of IC50 for TGH to IC50 for rat FAAH
[3] = Selectivity ratio of IC50 for KIAA1363 to IC50 for rat FAAH
Liver carboxylesterase 1 = target: T2, Liver carboxylesterase 1 (Homo sapiens, UniProt P23141); test: Inhibition of TGH
T2 sequence (P23141 whole entry): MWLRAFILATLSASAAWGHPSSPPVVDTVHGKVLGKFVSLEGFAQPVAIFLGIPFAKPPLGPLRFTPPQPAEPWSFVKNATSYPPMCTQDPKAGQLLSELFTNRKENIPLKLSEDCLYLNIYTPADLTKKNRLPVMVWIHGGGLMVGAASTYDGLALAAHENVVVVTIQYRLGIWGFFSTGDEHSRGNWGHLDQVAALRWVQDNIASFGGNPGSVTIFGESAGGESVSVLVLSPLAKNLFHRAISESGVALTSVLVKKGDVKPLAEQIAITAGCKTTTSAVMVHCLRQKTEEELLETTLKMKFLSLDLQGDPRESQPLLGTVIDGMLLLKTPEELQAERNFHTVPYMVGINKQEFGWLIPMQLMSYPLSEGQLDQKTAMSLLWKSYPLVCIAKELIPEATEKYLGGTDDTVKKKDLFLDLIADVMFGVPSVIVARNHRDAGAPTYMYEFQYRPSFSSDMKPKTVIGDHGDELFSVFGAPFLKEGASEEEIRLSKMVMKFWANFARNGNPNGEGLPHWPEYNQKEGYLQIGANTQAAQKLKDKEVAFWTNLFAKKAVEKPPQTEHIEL

[4] = target: T3, Fatty-acid amide hydrolase 1 (Rattus norvegicus, UniProt P97612); test: Inhibition of rat FAAH
T3 sequence (P97612 whole entry): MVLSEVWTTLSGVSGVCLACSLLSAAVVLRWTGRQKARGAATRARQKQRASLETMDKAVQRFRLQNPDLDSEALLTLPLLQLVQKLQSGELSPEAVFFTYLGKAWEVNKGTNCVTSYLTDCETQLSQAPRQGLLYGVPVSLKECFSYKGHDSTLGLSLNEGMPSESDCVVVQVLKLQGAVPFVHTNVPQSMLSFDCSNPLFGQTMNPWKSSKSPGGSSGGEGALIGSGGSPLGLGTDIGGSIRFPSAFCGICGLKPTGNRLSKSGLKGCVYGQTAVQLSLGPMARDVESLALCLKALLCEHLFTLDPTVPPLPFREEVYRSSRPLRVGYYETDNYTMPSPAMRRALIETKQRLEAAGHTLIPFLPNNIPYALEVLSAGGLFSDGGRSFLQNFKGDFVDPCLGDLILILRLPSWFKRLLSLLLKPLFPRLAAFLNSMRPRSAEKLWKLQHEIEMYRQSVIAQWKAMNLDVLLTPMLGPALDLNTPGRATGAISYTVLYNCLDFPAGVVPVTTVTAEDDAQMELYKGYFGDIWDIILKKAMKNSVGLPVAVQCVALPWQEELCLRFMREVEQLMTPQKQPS

IC50 [1] | Ratio IC50 [2] | Ratio IC50 [3] | IC50 (Liver carboxylesterase 1) | IC50 [4] | SMILES
> 100000 nM | 5 | > 3000 | 2500 nM | 500 nM | O=C(O)c1coc(C(=O)CCCCCCc2ccccc2)n1
30000 nM | 1.5 | > 700 | 30 nM | 20 nM | N#Cc1coc(C(=O)CCCCCCc2ccccc2)n1
10000 nM |  | > 200 | 60 nM | 400 nM | O=C(CCCCCCc1ccccc1)c1nc(C(F)(F)F)co1
> 100000 nM | 5 | 1500 | 700 nM | 140 nM | O=C(CCCCCCc1ccccc1)c1nc(-c2ccncc2)co1

Further lines, the compound ahead of its results:

SMILES | IC50 [1] | Ratio IC50 [2] | Ratio IC50 [3] | IC50 (Liver carboxylesterase 1) | IC50 [4]
O=C(CCCCCCc1ccccc1)c1nc(-c2ccccn2)co1 | > 100000 nM | 330 | 25 | 10000 nM | 30 nM
O=C(O)c1cnc(C(=O)CCCCCCc2ccccc2)o1 |  | > 100 | > 100 |  | 900 nM
O=C(CCCCCCc1ccccc1)c1ncc(C(F)(F)F)o1 |  | 3 | > 1400 |  | 70 nM
